According to ChEMBL document CHEMBL2216752, “Carnitine palmitoyltransferase (CPT) modulators: a medicinal chemistry perspective on 35 years of research” (J Med Chem, 2011):

How the values were obtained:
[1] = molecular target: Carnitine O-palmitoyltransferase 1, muscle isoform (Rattus norvegicus) (UniProt Q63704); experiment: Maximal inhibition of CPT1B in rat muscle mitochondria; conditions: Muscle tissue
[2] = molecular target: Carnitine O-palmitoyltransferase 1, liver isoform (Rattus norvegicus) (UniProt P32198); experiment: Maximal inhibition of CPT1A in rat liver mitochondria
Chain of Carnitine O-palmitoyltransferase 1, liver isoform (Rattus norvegicus) (P32198 whole entry, looked up, canonical isoform): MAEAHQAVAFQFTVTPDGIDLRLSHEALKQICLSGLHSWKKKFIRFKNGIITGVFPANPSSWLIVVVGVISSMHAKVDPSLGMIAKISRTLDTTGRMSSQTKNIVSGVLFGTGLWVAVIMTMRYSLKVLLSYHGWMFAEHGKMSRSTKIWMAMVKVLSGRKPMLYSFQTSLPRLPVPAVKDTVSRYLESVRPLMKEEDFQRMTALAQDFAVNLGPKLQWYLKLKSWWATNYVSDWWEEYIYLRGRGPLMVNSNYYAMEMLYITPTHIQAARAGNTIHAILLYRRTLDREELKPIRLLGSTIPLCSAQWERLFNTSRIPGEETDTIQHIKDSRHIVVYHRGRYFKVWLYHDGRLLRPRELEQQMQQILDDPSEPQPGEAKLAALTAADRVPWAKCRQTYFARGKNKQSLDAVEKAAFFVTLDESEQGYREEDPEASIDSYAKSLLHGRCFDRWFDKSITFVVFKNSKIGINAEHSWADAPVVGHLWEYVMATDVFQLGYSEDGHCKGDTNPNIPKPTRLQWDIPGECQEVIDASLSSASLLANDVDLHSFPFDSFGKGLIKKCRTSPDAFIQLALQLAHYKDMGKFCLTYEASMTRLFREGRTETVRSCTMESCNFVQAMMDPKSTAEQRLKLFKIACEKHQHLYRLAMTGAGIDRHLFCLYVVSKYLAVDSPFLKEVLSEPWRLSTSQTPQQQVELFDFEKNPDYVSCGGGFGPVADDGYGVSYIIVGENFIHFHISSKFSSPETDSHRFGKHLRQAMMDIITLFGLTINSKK

Chain of Carnitine O-palmitoyltransferase 1, muscle isoform (Rattus norvegicus) (Q63704 whole entry, canonical isoform): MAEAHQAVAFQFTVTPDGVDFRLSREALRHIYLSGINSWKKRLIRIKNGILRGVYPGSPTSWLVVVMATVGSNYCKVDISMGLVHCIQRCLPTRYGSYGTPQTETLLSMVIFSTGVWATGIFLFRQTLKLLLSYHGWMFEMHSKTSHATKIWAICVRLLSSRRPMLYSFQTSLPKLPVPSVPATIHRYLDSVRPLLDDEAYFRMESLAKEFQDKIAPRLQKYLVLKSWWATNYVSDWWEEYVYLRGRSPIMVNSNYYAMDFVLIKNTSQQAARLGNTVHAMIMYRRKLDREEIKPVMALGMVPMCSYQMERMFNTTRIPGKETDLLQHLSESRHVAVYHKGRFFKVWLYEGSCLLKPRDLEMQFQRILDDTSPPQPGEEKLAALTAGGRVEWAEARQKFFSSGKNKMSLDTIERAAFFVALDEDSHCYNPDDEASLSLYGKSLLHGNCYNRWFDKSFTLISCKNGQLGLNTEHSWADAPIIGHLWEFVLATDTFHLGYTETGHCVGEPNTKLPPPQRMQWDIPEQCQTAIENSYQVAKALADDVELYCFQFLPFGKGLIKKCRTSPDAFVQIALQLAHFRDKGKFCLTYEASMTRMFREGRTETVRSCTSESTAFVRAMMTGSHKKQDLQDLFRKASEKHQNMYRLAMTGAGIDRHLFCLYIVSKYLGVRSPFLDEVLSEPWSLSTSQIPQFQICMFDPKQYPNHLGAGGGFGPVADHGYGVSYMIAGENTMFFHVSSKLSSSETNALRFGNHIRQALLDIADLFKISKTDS

SMILES: O=C(O)[C@@]1(CCCCCCOc2ccc([N+](=O)[O-])cc2[N+](=O)[O-])CO1
- Imax [1]: > 60 µM
- Imax [2]: 5 µM
